Measurements from patent publication US6656957B1, “Pyridine derivatives” (Novartis AG, priority 1998, dated 2003).
Where two headings read alike, the source gives them in different places.

Assays:
[1] = system: electroshock induced convulsion; assay: electroshock induced convulsion model; format: in vivo; details: ip, read-out: anticonvulsive activity ED50
Method: At doses of about 10 to 100 mg/kg i.p. or p.o. with pretreatment times of 15 min. to 8 hours, the agents of the invention show anticonvulsive activity in the electroshock induced convulsion model [cf. E. A. Swinyard, J. Pharm. Assoc. Scient. Ed. 38, 201 (1949) and J. Pharmacol. Exptl. Therap. 106, 319 (1952)].
(§1) Preferred compounds for the above mentioned indications include (3-{2-[2-trans-(3,5-dichlorophenyl)-vinyl]-6-methyl-pyridin-3-yloxy}-propyl)-dimethylamine (A), 2-methyl-6-styryl-pyridine (B), 2-(3-fluoro-phenylethynyl)-6-methyl-pyridine (C) and 2-(4-ethoxy-3-trifluoromethyl-phenylethynyl)-6-methyl-pyridine (D).

FCA induced hyperalgesia = assay: Freund complete adjuvant (FCA) induced hyperalgesia model; format: in vivo; details: po; post-treatment time 3 hours; read-out: reversal of the hyperalgesia ED50
Method: At doses of about 4 to about 40 mg/kg p.o., the agents of the invention show reversal of Freund complete adjuvant (FCA) induced hyperalgesia [cf. J. Donnerer et al., Neuroscience 49, 693-698 (1992) and C. J. Woolf, Neuroscience 62, 327-331 (1994)].
as §1

## Cc1ccc(OCCCN(C)C)c(/C=C/c2cc(Cl)cc(Cl)c2)n1 [A, (3-{2-[2-trans-(3,5-dichlorophenyl)-vinyl]-6-methyl-pyridin-3-yloxy}-propyl)-dimethylamine]
[1]; pretreatment time 4 hours
  ED50: 30 mg/kg

## Cc1cccc(C=Cc2ccccc2)n1 [B, 2-methyl-6-styryl-pyridine]
[1]; pretreatment time 15 min.
  ED50: 35 mg/kg

## Cc1cccc(C#Cc2cccc(F)c2)n1 [C, 2-(3-fluoro-phenylethynyl)-6-methyl-pyridine]
FCA induced hyperalgesia
  ED50: 4.2 mg/kg
other
  melting point: 26 to 28 °C

## CCOc1ccc(C#Cc2cccc(C)n2)cc1C(F)(F)F [D, 2-(4-ethoxy-3-trifluoromethyl-phenylethynyl)-6-methyl-pyridine]
FCA induced hyperalgesia
  ED50: 19 mg/kg
